This is an account of results in patent US8173693B2, “Benzenesulfonamide derivatives and pharmaceutical composition thereof” (Purzer Pharmaceutical Co., Ltd., priority 2010, dated 2012).

Where “and” joins values, the source holds several entries; their conditions need not be identical. Equal values may be shown once.

The subject of one data set is colon 38 cells. The following applies: Owa et al., J. Med. Chem. 1999, 42, 3789-3799; read-out: IC50 against colon 38 cells; cited from earlier work.
The subject of data set [1] is P388 murine leukemia cells. The following applies: Owa et al., J. Med. Chem. 1999, 42, 3789-3799; read-out: IC50 against P388 murine leukemia cells; cited from earlier work.
For the next data set, the system named is KB cells. The following applies: Owa et al., J. Med. Chem. 1999, 42, 3789-3799; read-out: IC50 against KB cells; cited from earlier work.
Data set [2] relates to Human Bladder Cancer TSGH cells. Put plainly: MTT assay. The class given is cell-based. The following applies: 72 hr. The protocol: (§1) Human Bladder Cancer TSGH cells, Human hepatoblastoma HepG2 cells, Human colorectal adenocarcinoma HT-29 cells, human nasopharyngeal carcinoma KB cells, Human gastric adenocarcinoma AGS cells, Human breast carcinoma MCF-7 cells, lung carcinoma A549 cells, and Human prostate carcinoma PC-3 cells were used in the preliminary cytotoxicity assays of the benzenesulfonamide derivatives of the present invention, and the inhibition activity against the tumor cells was evaluated.
(§2) All cell lines were maintained in RPMI 1640 supplied with 10% fetal bovine serum and maintained in a humidified chamber at 37° C. containing 5% CO2. Then, all cell lines were treated with compounds for 72 hr and subsequently incubated with 0.4 mg/mL of MTT at 37° C. for 2 hr. The medium was removed, and DMSO was added to dissolve MTT precipitate. Cell proliferation was determined by measuring the optical density at 540 nm using a Thermomax microplate reader (Molecular Devices, Sunnyvale, Calif.), and the IC50 values of the benzenesulfonamide derivatives of the present invention were calculated.

Data set [3] has as its system human nasopharyngeal carcinoma KB cells. Put plainly: MTT assay. The class given is cell-based. The following applies: Homo sapiens, KB; MTT assay, 72 hr. The procedure: as §1, §2
Data set [4] relates to Human colorectal adenocarcinoma HT-29 cells. As to the kind of experiment: MTT assay. The class given is cell-based. The following applies: 72 hr. The protocol: as §1, §2
In data set [5] the test system is Human hepatoblastoma HepG2 cells. Put plainly: MTT assay. Format: cell-based. The following applies: 72 hr, read-out: IC50 HepaG2. The procedure: as §1, §2
The next data set concerns tumor cells. As to the kind of experiment: Preliminary cytotoxicity assays (MTT, SRB), tumor cell panel. Format: cell-based. The following applies: comparison over Tables 1-4. The protocol: as §1, §2
All cell lines were maintained in RPMI 1640 supplied with 10% fetal bovine serum into 96-well microtiter plates and maintained in a humidified chamber at 37° C. containing 5% CO2. After 24 hr, cell lines in partial wells were fixed in situ with 10% trichloroacetic acid (TCA) to represent a measurement at the time of drug addition (T0). Then, cell lines in other wells were incubated with the benzenesulfonamide derivatives of the present invention for an additional 48 hr, and fixed in situ with 10% TCA to represent a measurement at the time of stopping reaction (Tx). […] Cell proliferation was determined by measuring the optical density at 515 nm using a Thermomax microplate reader (Molecular Devices, Sunnyvale, Calif.). The half-inhibition concention (GI50) of the benzenesulfonamide derivatives of the present invention was obtained from the detected optical density.

For data set [6] the following is noted: background statement; cited from earlier work.
For data set [7], the system named is 4T1-Luc cells. As to the kind of experiment: In vivo evaluation, short-time treatment, mice implanted with 4T1-Luc cells. The following applies: short-time treatment, GM119 25 mg/kg, Taxol 10 mg/kg. The procedure:
GM119 (25 mg/kg) was applied to a mouse implanted with 4T1-Luc cells for a short time, and then Taxol (10 mg/kg) was applied thereto to observe the effect of GM119 on the 4T1-Luc cells.
(§3) A suspension of 4T1-Luc cells in matrigel was injected into the breast adipocyte to obtain mice implanted with luciferase tumor cells. […] When the size of the tumor cells was achieved to 200-500 mm^3, the mice were divided into 2 groups, and the number of the mice in each group is ≧5. Then, 0 or 25 mg/kg of GM119 was abdominal-injected into the mice for 5 days, wherein GM119 was dissolved in cremophor, and the volume of injection to each mouse is 50 μl. Then, 0 or 10 mg/kg of Taxol was abdominal-injected into the mice for every 2 days until death of the mice. The weight and the number of the mice were recorded every day to analyze the change on the weight and the survival time of the mice. After the drugs were applied to the mice, the size of the tumor cells in the mice was evaluated with bioluminescence every two days.

Data set [8] deals with 4T1-Luc cells. Put plainly: In vivo evaluation, long-time treatment, mice implanted with 4T1-Luc cells. The procedure: GM119 (25 mg/kg) and Taxol (10 mg/kg) were simultaneously applied to a mouse implanted with 4T1-Luc cells for a long time to observe the effect of GM119 on the 4T1-Luc cells.
as §3, with “Then, 0/0, 0/25, 10/[…],” for “Then, 0”, “or 10/0” for “or 25”, “of Taxol/GM119” for “of GM119”, “mice every two days until death of the mice,” for “mice for 5 days,”, “GM119 and Taxol were” for “GM119 was”, “μl.” for “μl. Then, 0 or 10 mg/kg of Taxol was abdominal-injected into the mice for every 2 days until death of the mice.”

Turning to `NS(=O)(=O)c1ccc(S(=O)(=O)Nc2cccc3c(Cl)c[nH]c23)cc1` [Compound E7070], the IC50 with colon 38 cells was 0.26 µM and 0.3 µM; in data set [1] it was 1.2 µM; with KB cells it was 11.4 µM.

`O=S(=O)(Nc1cccc2c(/N=N/c3ccccc3)c[nH]c12)c1ccc(Cl)cc1` [Compound 7c, 4-Chloro-N-(3-phenylazo-1H-indol-7-yl)benzenesulfonamide] yielded a melting point of 110 to 111 °C. This compound yielded an IC50 in data set [2] of 14.2 µM. This compound displayed an IC50 in [3] of 15.3 µM. In data set [4], this compound gave a half-inhibitory concentration (IC50) of 13.8 µM. In [5], the IC50 turned out to be 28.4 µM. In the data set with tumor cells, the “inhibitory activity against the tumor cells (in words)” value is listed as “higher than that of the compound 5d”.

`COc1ccc(S(=O)(=O)Nc2cccnc2Nc2ccc(O)cc2)cc1` [Compound E7010]: the “anti-cancer activity in mice” value in [6] was “shows great effect”.

Turning to `CC(=O)O[C@H]1C(=O)[C@@]2(C)[C@H]([C@H](OC(=O)c3ccccc3)[C@]3(O)C[C@H](OC(=O)[C@H](O)[C@@H](NC(=O)c4ccccc4)c4ccccc4)C(C)=C1C3(C)C)[C@]1(OC(C)=O)CO[C@@H]1C[C@@H]2O` [Taxol, reference compound], the “growth of the tumor cells (bioluminescence)” value with 4T1-Luc cells [7] and in the data set with 4T1-Luc cells [8] (long-time treatment) was “the growth of the tumor cells can be inhibited” throughout. Besides, the “survival of the mice” value in the data set with 4T1-Luc cells [8] (long time: Taxol 10 mg/kg and/or GM119 25 mg/kg abdominal-injected every two days until death, FIG. 3) was “the survival of the mice can be increased”.
